Test results published in ChEMBL document CHEMBL3588812, “Thiophene and benzodioxole appended thiazolyl-pyrazoline compounds: Microwave assisted synthesis, antimicrobial and molecular docking studies” (2015).
The source made the active and inactive calls. The rule behind the calls is not given here.

What was measured:
[1] = test system: Candida albicans; assay: Antimicrobial activity against Candida albicans MTCC 227 assessed as inhibition of visual microbial growth incubated for 48 to 72 hrs at 28 degC; assay type: functional
[2] = test system: Klebsiella pneumoniae; assay: Antimicrobial activity against Klebsiella pneumoniae MTCC 109 assessed as inhibition of visual microbial growth incubated for 24 hrs at 37 degC; assay type: functional; conditions: MTCC 109, 24 h
[3] = test system: Klebsiella aerogenes; assay: Antimicrobial activity against Enterobacter aerogenes MTCC 111 assessed as inhibition of visual microbial growth incubated for 24 hrs at 37 degC; assay type: functional; conditions: MTCC 111, 24 h
[4] = test system: Shigella flexneri; assay: Antimicrobial activity against Shigella flexneri MTCC 1457 assessed as inhibition of visual microbial growth incubated for 24 hrs at 37 degC; assay type: functional
[5] = test system: Salmonella typhimurium; assay: Antimicrobial activity against Salmonella typhimurium MTCC 1251 assessed as inhibition of visual microbial growth incubated for 24 hrs at 37 degC; assay type: functional, Salmonella enterica subsp. enterica serovar Typhimurium; conditions: Salmonella enterica, MTCC 1251, 24 h
[6] = test system: Proteus vulgaris; assay: Antimicrobial activity against Proteus vulgaris MTCC 1771 assessed as inhibition of visual microbial growth incubated for 24 hrs at 37 degC; assay type: functional
[7] = test system: Staphylococcus aureus; assay: Antimicrobial activity against methicillin-resistant Staphylococcus aureus assessed as inhibition of visual microbial growth incubated for 24 hrs at 37 degC; assay type: functional
[8] = test system: Micrococcus luteus; assay: Antimicrobial activity against Micrococcus luteus MTCC 106 assessed as inhibition of visual microbial growth incubated for 24 hrs at 37 degC; assay type: functional; conditions: MTCC 106, 24 h
[9] = test system: Staphylococcus aureus; assay: Antimicrobial activity against Staphylococcus aureus MTCC 96 assessed as inhibition of visual microbial growth incubated for 24 hrs at 37 degC; assay type: functional; conditions: MTCC 96, 24 h
[10] = test system: Malassezia pachydermatis; assay: Antimicrobial activity against Malassezia pachydermatis assessed as inhibition of visual microbial growth incubated for 48 to 72 hrs at 28 degC; assay type: functional

With `CC(=O)N1CCN(c2ccc(OCC3COC(Cn4ccnc4)(c4ccc(Cl)cc4Cl)O3)cc2)CC1` (stereo unspecified) [KETOCONAZOLE] the MIC [1] was 25 µg/mL.
`Fc1ccccc1-c1csc(N2N=C(c3cccs3)CC2c2cc3c(cc2Br)OCO3)n1` (stereo unspecified) gave an MIC [2] of 250 µg/mL, an MIC [3] of 250 µg/mL and an MIC ([4]; MTCC 1457, 24 h) of 250 µg/mL. For the same compound, the MIC [5] was 125 µg/mL, the MIC ([6]; MTCC 1771, 24 h) was 500 µg/mL and the MIC [1] was 125 µg/mL. It also gave an MIC [7] of 250 µg/mL, an MIC [8] of 125 µg/mL and an MIC [9] of 250 µg/mL. The MIC [10] was 500 µg/mL.
`Fc1ccc(-c2csc(N3N=C(c4cccs4)CC3c3cc4c(cc3Br)OCO4)n2)cc1` (stereo unspecified) showed an MIC [2] of 500 µg/mL, an MIC [3] of 250 µg/mL and an MIC ([4]; MTCC 1457, 24 h) of 250 µg/mL. The MIC [5] was 250 µg/mL, the MIC [6] was “inactive” and the MIC [1] was 250 µg/mL. For the same compound, the MIC [7] was “inactive”, the MIC [8] was 125 µg/mL and the MIC [9] was 250 µg/mL. It also gave an MIC [10] of 500 µg/mL.
For `Fc1ccc(-c2csc(N3N=C(c4cccs4)CC3c3ccc4c(c3)OCO4)n2)cc1` (stereo unspecified), the MIC [2] was 250 µg/mL, the MIC [3] was 125 µg/mL and the MIC ([4]; MTCC 1457, 24 h) was 250 µg/mL. The MIC [5] was 500 µg/mL, the MIC ([6]; MTCC 1771, 24 h) was 500 µg/mL and the MIC [1] was 125 µg/mL. It also gave an MIC [7] of 250 µg/mL, an MIC [8] of 250 µg/mL and an MIC [9] of 500 µg/mL. It also gave an MIC [10] of 250 µg/mL.
With `Brc1cc2c(cc1C1CC(c3cccs3)=NN1c1nc(-c3ccccc3)cs1)OCO2` (stereo unspecified) the MIC [2] was 250 µg/mL, the MIC [3] was 62.5 µg/mL and the MIC ([4]; MTCC 1457, 24 h) was 250 µg/mL. The MIC [5] was 125 µg/mL, the MIC ([6]; MTCC 1771, 24 h) was 62.5 µg/mL and the MIC [1] was 125 µg/mL. For the same compound, the MIC [7] was 250 µg/mL, the MIC [8] was 125 µg/mL and the MIC [9] was 125 µg/mL. The MIC [10] was 125 µg/mL.
With `Fc1cc(-c2csc(N3N=C(c4cccs4)CC3c3ccc4c(c3)OCO4)n2)ccc1Cl` (stereo unspecified) the MIC [2] was 250 µg/mL, the MIC [3] was 125 µg/mL and the MIC ([4]; MTCC 1457, 24 h) was 125 µg/mL. The MIC [5] was 500 µg/mL, the MIC ([6]; MTCC 1771, 24 h) was 500 µg/mL and the MIC [1] was 125 µg/mL. It also gave an MIC [7] of 250 µg/mL, an MIC [8] of 62.5 µg/mL and an MIC [9] of 500 µg/mL. It also gave an MIC [10] of 500 µg/mL.
With `N#Cc1cccc(-c2csc(N3N=C(c4cccs4)CC3c3ccc4c(c3)OCO4)n2)c1` (stereo unspecified) the MIC [2] was 62.5 µg/mL, the MIC [3] was 125 µg/mL and the MIC ([4]; MTCC 1457, 24 h) was 125 µg/mL. The MIC [5] was 62.5 µg/mL, the MIC ([6]; MTCC 1771, 24 h) was 250 µg/mL and the MIC [1] was 125 µg/mL. For the same compound, the MIC [7] was 62.5 µg/mL, the MIC [8] was 31.2 µg/mL and the MIC [9] was 31.2 µg/mL. For the same compound, the MIC [10] was 250 µg/mL.
With `Fc1cc(-c2csc(N3N=C(c4cccs4)CC3c3cc4c(cc3Br)OCO4)n2)ccc1Cl` (stereo unspecified) the MIC [2] was 125 µg/mL, the MIC [3] was 250 µg/mL and the MIC ([4]; MTCC 1457, 24 h) was 125 µg/mL. For the same compound, the MIC [5] was 125 µg/mL, the MIC ([6]; MTCC 1771, 24 h) was 125 µg/mL and the MIC [1] was 500 µg/mL. For the same compound, the MIC [7] was 250 µg/mL, the MIC [8] was 125 µg/mL and the MIC [9] was 125 µg/mL. It also gave an MIC [10] of 500 µg/mL.
Work on `O=[N+]([O-])c1ccc(-c2csc(N3N=C(c4cccs4)CC3c3ccc4c(c3)OCO4)n2)cc1` (stereo unspecified) yielded an MIC [2] of 500 µg/mL, an MIC [3] of 500 µg/mL and an MIC ([4]; MTCC 1457, 24 h) of 500 µg/mL. The MIC [5] was 500 µg/mL, the MIC [6] was “inactive” and the MIC [1] was 250 µg/mL. For the same compound, the MIC [7] was “inactive”, the MIC [8] was 250 µg/mL and the MIC [9] was 500 µg/mL. It also gave an MIC [10] of 500 µg/mL.
`Fc1cc(Cl)ccc1-c1csc(N2N=C(c3cccs3)CC2c2cc3c(cc2Br)OCO3)n1` (stereo unspecified) showed an MIC [2] of 62.5 µg/mL, an MIC [3] of 125 µg/mL and an MIC ([4]; MTCC 1457, 24 h) of 62.5 µg/mL. The MIC [5] was 31.2 µg/mL, the MIC ([6]; MTCC 1771, 24 h) was 62.5 µg/mL and the MIC [1] was 62.5 µg/mL. For the same compound, the MIC [7] was 62.5 µg/mL, the MIC [8] was 125 µg/mL and the MIC [9] was 125 µg/mL. It also gave an MIC [10] of 125 µg/mL.
With `N#Cc1cccc(-c2csc(N3N=C(c4cccs4)CC3c3cc4c(cc3Br)OCO4)n2)c1` (stereo unspecified) the MIC [2] was 62.5 µg/mL, the MIC [3] was 62.5 µg/mL and the MIC ([4]; MTCC 1457, 24 h) was 62.5 µg/mL. The MIC [5] was 31.2 µg/mL, the MIC ([6]; MTCC 1771, 24 h) was 31.2 µg/mL and the MIC [1] was 62.5 µg/mL. The MIC [7] was 62.5 µg/mL, the MIC [8] was 31.2 µg/mL and the MIC [9] was 31.2 µg/mL. The MIC [10] was 125 µg/mL.
`Fc1ccccc1-c1csc(N2N=C(c3cccs3)CC2c2ccc3c(c2)OCO3)n1` (stereo unspecified) was tested, and the MIC [2] was 500 µg/mL, the MIC [3] was 500 µg/mL and the MIC [4] was “inactive”. It also gave an MIC [5] of 250 µg/mL, an MIC ([6]; MTCC 1771, 24 h) of 500 µg/mL and an MIC [1] of 500 µg/mL. It also gave an MIC [7] of 250 µg/mL, an MIC [8] of 125 µg/mL and an MIC [9] of 250 µg/mL. It also gave an MIC [10] of 500 µg/mL.
